Data as given in patent publication EP4595983A1, “NANOPARTICLES FUNCTIONALISED WITH A STABILISING AGENT AND A TARGETING AGENT” (BXTA Nanotherapy Limited, priority 2024, dated 2025).
Peptide text beside a SMILES is read from it. * marks the point of attachment. Palmitoyl = CCCCCCCCCCCCCCCC(=O)*

Columns and labels:
DU145 parental cells = experiment: Alamar blue viability assay; type: cell-based; details: pepducin exposure; comparative pepducin effect at both 300 nM and 600 nM
Protocol: (§1) Alamar blue viability assays assessed the impact of inhibiting CXCL8 pro-inflammatory signalling on the viability of various PCa cell lines (Figure 28). Three increasing concentrations of pepducin (150 nM, 300 nM and 600 nM) were assayed following a 6 h incubation. Following exposure to pepducin cells were washed in PBS and 10% Alamar blue solution added for 4 h. Fluorescence was then measured at 540 - 570 nm. […] (N = 4 +/- SEM).
(§2) Following exposure to pepducins, cells were washed in PBS and 10% Alamar blue solution added for 4 h. Fluorescence was then measured at 540 - 570 nm. […] (N=4 +/- SEM).

sh1102 cells = experiment: Alamar blue viability assay; type: cell-based; details: pepducin exposure; comparative pepducin effect at both 300 nM and 600 nM
Protocol: as §1, §2

NT01 = experiment: Alamar blue viability assay; type: cell-based; details: pepducin exposure; comparative pepducin effect at both 300 nM and 600 nM
Protocol: as §1, §2

PC3 cells = experiment: Alamar blue viability assay; type: cell-based; details: 6 h; for cell viability (significance): 150 nM, 300 nM and 600 nM; for reduction in viability: 300 nM
Protocol: as §1

various PCa cell lines = experiment: Alamar blue viability assay; type: cell-based; details: 150 nM, 300 nM and 600 nM, 6 h incubation
Protocol: as §1

[1] = Solubility (peptide characteristics); type: physicochemical

| Molecule | cell viability / toxicity (DU145 parental cells) | cell viability / toxicity (sh1102 cells) | cell viability / toxicity (NT01) | cell viability (significance) (PC3 cells) | reduction in viability (PC3 cells) | cell viability (various PCa cell lines) | Solubility [1] |
| --- | --- | --- | --- | --- | --- | --- | --- |
| CCCCCCCCCCCCCCCC(=O)N[C@@H](CCCNC(=N)N)C(=O)N[C@H](C(=O)N[C@@H](CC(C)C)C(=O)N[C@@H](Cc1ccccc1)C(=O)N[C@@H](CCCCN)C(=O)N[C@@H](C)C(=O)N[C@@H](Cc1c[nH]cn1)C(=O)N[C@@H](CCSC)C(=O)NCC(=O)N[C@@H](CCC(N)=O)C(=O)N[C@@H](CCCCN)C(=O)N[C@@H](Cc1c[nH]cn1)C(=O)N[C@@H](CCCNC(=N)N)C(=O)N[C@@H](CS)C(N)=O)[C@@H](C)O [SEQ ID 3, Pal-RTLFKAHMGQKHRC-NH2] (Palmitoyl-RTLFKAHMGQKHRC-NH2) | did not show any significant toxicity | did not show any significant toxicity | did not show any significant toxicity | no significant reduction in viability | 8% | did not significantly reduce cell viability | 1:4 (Acetonitirile:H2O) |
| CCCCCCCCCCCCCCCC(=O)N[C@@H](CCCNC(=N)N)C(=O)N[C@H](C(=O)N[C@@H](CC(C)C)C(=O)N[C@@H](Cc1ccccc1)C(=O)N[C@@H](CCCCN)C(=O)N[C@@H](C)C(=O)N[C@@H](Cc1c[nH]cn1)C(=O)N[C@@H](CCSC)C(=O)NCC(=O)N[C@@H](CCC(N)=O)C(=O)N[C@@H](CCCCN)C(=O)N[C@@H](Cc1c[nH]cn1)C(=O)N[C@@H](CCCNC(=N)N)C(N)=O)[C@@H](C)O [comparative pepducin] (Palmitoyl-RTLFKAHMGQKHR-NH2) | significantly reduced cell viability | significantly reduced cell viability | significantly reduced cell viability |  | 25% | did not significantly reduce cell viability |  |
| scrambled control: scrambled control (corresponding to SEQ ID 7) (Palmitoyl-TRFLAKMHQGHKRC-NH2; SMILES CCCCCCCCCCCCCCCC(=O)N[C@H](C(=O)N[C@@H](CCCNC(=N)N)C(=O)N[C@@H](Cc1ccccc1)C(=O)N[C@@H](CC(C)C)C(=O)N[C@@H](C)C(=O)N[C@@H](CCCCN)C(=O)N[C@@H](CCSC)C(=O)N[C@@H](Cc1c[nH]cn1)C(=O)N[C@@H](CCC(N)=O)C(=O)NCC(=O)N[C@@H](Cc1c[nH]cn1)C(=O)N[C@@H](CCCCN)C(=O)N[C@@H](CCCNC(=N)N)C(=O)N[C@@H](CS)C(N)=O)[C@@H](C)O) | did not show any significant toxicity | did not show any significant toxicity | did not show any significant toxicity | no significant affects |  | did not significantly reduce cell viability |  |
